Test results taken from patent US20100069345A1, “Lanthanide-porphyrin complexes as anti-tumor agents” (priority 2005, published 2010).

Assays:
HeLa cells [1] = test: Transmission electron microscopy of autophagic cells; assay type: cell-based, human; conditions: 1 μM, 2 h
Experimental: Transmission Electron Microscopy. HeLa cells (12×10^4) were seeded on 60 mm plate. Cells were treated with 1 (1 μM) for 2 h, respectively. Cells were then trypsinized, washed twice with PBS and fixed with ice-cold glutaraldehyde (2.5% in 0.1 M cacodylate buffer, pH 7.4) for 30 min. After primary fixation, cells were washed with cacodylate buffer, post-fixed with 1% osmium tetraoxide for 30 min. Osmium tetraoxide was removed and the cell pellet was washed with cacodylate buffer. Pre-warmed gelatin was added to the cell pellet and immediately centrifuged at 2500 rpm for 5 min. The gelatin was dehydrated by immersing in 30% EtOH, 50% EtOH, 70% EtOH once, and in 90% EtOH twice for 5 min and finally in absolutely EtOH for 10 min for three times. The dehydrated sample was washed with propylene oxide twice for 5 min and then immersed in propylene oxide:resin (1:1) for overnight. The sample was immersed in pure resin for 30 min before embedded in Polybed. Specimens were examined using 208S Philips transmission electron microscopy.
Cells treated with 1 were subjected to transmission electron microscopic analysis.

Bid = test: Western blotting analysis, Bid; assay type: cell-based, human; conditions: HeLa, 2 μM, 32 h
Experimental: Cells were washed in cold phosphate-buffered saline (PBS) at 4° C. and lysed in a buffer containing 0.05 M Tis.HCl (pH 7.5), 0.25 M NaCl, 0.005 M EDTA, 0.05 M NaF, 1 mM DTT and 1% Triton. Cell lysates were collected and the protein concentration of cell lysates was measured using a Protein detection kit (Bio-Rad). Equal amount of proteins was resolved in a 12% SDS-PAGE gel and transferred onto nitrocellulose membranes. The membrane was blocked with a blocking solution (1×TBS, 0.1% Tween-20 with 5% non-fat dry milk) at room temperature for 1 h, and washed three times with washing buffer (1×TBS, 0.1% Tween-20) for 5 min each. The membrane was then incubated with primary antibody (Caspase 3, Bid, PARP and β-Actin respectively) for overnight at 4° C. The membrane was washed three times with washing buffer for 5 min each before incubation with the corresponding secondary antibody (horse anti-mouse IgG or goat anti-rabbit IgG). Membrane was washed again and signals were detected using an ECL detection kit (Amersham Pharmacia Biotech) followed by the exposure to X-ray films (Fujifilm).
After treatment with complex 1 for different time intervals, the expressions of caspase 3, Bid and PARP were detected by the Western blotting analysis. […] Moreover, treatment with complex 1 leads to a reduction in the level of un-cleaved Bid.

[2] = Stability by UV-visible in DMSO/Tris buffer; assay type: physicochemical; conditions: DMSO/Tris buffer solution (1:9), 24 h, room temperature; complex 1 3 μM, complex 2b 7 μM
Experimental: UV-visible experiments. The absorption spectra of 3 μM of complex 1 in DMSO/Tris buffer solution (1:9) were monitored for 24 h. […] The complex was monitored over 24 h at room temperature and about 23% decrease in the Soret band intensity was recorded without any significant spectral shift in both Soret and Q-bands (FIG. 5). The absorption spectra of 7 μM of complex 2b in DMSO/Tris buffer solution (1:9) were also monitored for 24 h.

[3] = system: human hepatocellular carcinoma cells (HepG2); test: MTT cell viability assay, HepG2; assay type: cell-based
Source text: Human cervical epitheloid carcinoma cells (HeLa), human hepatocellular carcinoma cells (HepG2 and Hep3B), human breast cancer cells (MCF-7), human coloadenocarcinoma cells (HCT-8), and normal human lung fibroblast cells (CCD-19Lu) were purchased from American Type Culture Collection (ATCC) Rockville, Md., USA. The human hepatocellular cancinoma cells QGY-7703, and the multi-drug resistant cell line QGY-TR50 derived from QGY-7703, were generously provided by Prof. Yong Xie (The Hong Kong University of Science and Technology, Hong Kong PRC). QGY-TR50 cells were isolated and cultured as described (J. Zhou, S. C. Cheng, D. Luo, Y. Xie Biochem. Biophys. Res. Commun. 2001, 280, 1237-1242). Human nasopharyngeal carcinoma cells (SUNE1 and its cisplatin-resistant variant—CNE2) were derived from poorly differentiated NPC in Chinese patients and were generously provided by Dr. S. W. Tsao (The University of Hong Kong, Hong Kong PRC). Cell culture flasks and 96-well microtitre plates were from Nalge Nunc Int. Culture medium, other medium constituents and phosphate buffer saline (PBS) were obtained by Gibco BRL Rockville, Md., USA. Cell Proliferation kit I (MTT) was purchased from Roche. Mannheim, Germany.

HeLa cells [4] = test: FACS cell cycle analysis with PI staining; assay type: cell-based, human; conditions: 2 μM
Experimental: Instrumentation. All absorption spectra were recorded on a Perkin-Elmer Lambda 900 and Perkin-Elmer Fusion α-FP. Positive ion FAB mass spectra were recorded on a Finnigan MAT95 mass spectrometer. ^1HNMR spectra were recorded on Brucker DPX-300 or DPX-400 NMR spectrometers. Flow cytometric analysis was performed with a Coulter EPICS flow cytometer (Coulter, Miami, Fla.) equipped with 480 long, 525 band and 625 long pass mirrors. Samples were excited by 15 mW air-cool argon convergent laser at 488 nm. Fluorescence signal were manipulated with Coulter Elite 4.0 software (Coulter) and were analyzed by Winlist 1.04 and Modfit 5011 software (verity Software House, Topsham, Me.).
Fluorescence-Activated Cell Sortings (FACS). Cells in different phases of the cell cycle can be differentiated by the DNA content, which can be distinguished by FACS after staining the cells with propidium iodide (PI). Resting cells are said to be in the G0 phase of the cell cycle. Once the cell is instructed to divide, it enters the active phase of the cell cycle, which is consisted of G1, S, G2 and M phase. Treatment of cancer cells with cytotoxic agents may induce cell cycle arrest at a particular phase of the cell cycle. Flow cytometry with PI staining was performed in HeLa cells treated with complex 1 (2 μM) for 0, 6 h, 12 h, 18 h, 24 h, 36 h and 48 h. […]

IC50 ratio cisplatin/complex, HepG2 ([3]; IC50 of cisplatin divided by IC50 of complex): 22.7 | IC50 ([3]; MTT, 37° C., 48 h, mean ± SD): 0.21 ± 0.01 µM
Substance: [Yb2(OEP)2](μ-OH)2 [Complex 1]
autophagic vacuoles by transmission electron microscopy (HeLa cells [1]): vesicular structures reminiscence of autophagic vacuoles | expression of Bid (Bid): decrease dramatically | decrease in Soret band intensity [2]: about 23% | change in proportion of cells in G0-G1, G2-M and S phase (HeLa cells [4]; 0-48 h, PI staining): no observable change | cells showing DNA fragmentation (HeLa cells [4]; 48 h): more than 60%
